Tested on: not listed separately
Experiment: Cytotoxicity against rat HSC-T6 cells
Assay type: cell-based
Conditions: not given

Which Activity does the source give for `COc1cc(C[C@@H](C)[C@@H](C)Cc2cc(O)c(OC)c(OC)c2)cc(O)c1OC` [PREGOMISIN] here?
Its Activity is “Toxic”.

For `COc1cc2c(c(OC)c1OC)-c1c(cc3c(c1OC)OCO3)C[C@H](C)[C@](C)(O)[C@H]2OC(=O)c1ccccc1` [GOMISIN C], which Activity is on record?
The Activity was “Toxic”.

Tested on: HSC-T6
Experiment: Inhibition of NF-kappaB (unknown origin) expressed in TNFalpha-stimulated rat HSC-T6 cells assessed as reduction of HSC activation at 50 ug/ml treated 30 mins before TNFalpha stimulation measured after 6 hrs by bioluminescence based luciferase reporter gene assay relative to control
Assay type: cell-based
Conditions: not given

For `C/C=C(/C)C(=O)O[C@H]1c2cc3c(c(OC)c2-c2c(cc4c(c2OC)OCO4)C[C@H](C)[C@]1(C)O)OCO3`, which inhibition is on record?
The inhibition was 34.8%.

For `COc1cc2c(c(OC)c1OC)-c1c(cc(O)c(OC)c1OC)C[C@H](C)[C@H](C)[C@@H]2O`, which inhibition is on record?
The inhibition was 49.2%.

Which inhibition does the source give for `COc1cc([C@@H]2c3cc(OC)c(O)cc3C(=O)[C@@H](C)[C@H]2C)ccc1O` here?
Its inhibition is 46.4%.

Which inhibition does the source give for `COc1cc2c(c(OC)c1OC)-c1c3cc4c(c1O[C@](C)([C@H](C)CO)C(=O)O[C@@H]2[C@@H](C)[C@@H](C)C3)OCO4` here?
The inhibition was 4.87%.

With `COc1cc2c(c(OC)c1OC)-c1c(cc(O)c(OC)c1OC)C[C@H](C)[C@](C)(O)[C@@H]2OC(=O)c1ccccc1` as the compound, how does the inhibition read?
Its inhibition is 27.9%.

With `C/C=C(\C)C(=O)O[C@H]1c2cc(OC)c(OC)c(OC)c2-c2c(cc(O)c(OC)c2OC)C[C@H](C)[C@]1(C)O` as the compound, how does the inhibition read?
The inhibition was 43.2%.

Which inhibition does the source give for `COc1cc2c(c(O)c1OC)-c1c(cc(OC)c(OC)c1OC)C[C@@H](C)[C@@H](C)C2` here?
The inhibition was 69%.

Which inhibition does the source give for `C/C=C(/C)C(=O)O[C@H]1c2cc(OC)c(OC)c(OC)c2-c2c(cc3c(c2OC)OCO3)C[C@H](C)[C@@]1(C)O` here?
The inhibition was 6.64%.

Which inhibition does the source give for `COc1c2c(cc3c1-c1c(cc4c(c1OC)OCO4)[C@H](OC(=O)c1ccccc1)[C@@](C)(O)[C@@H](C)C3)OCO2` here?
The inhibition was 71.8%.

Tested on: HSC-T6
Experiment: Inhibition of NF-kappaB (unknown origin) expressed in TNFalpha-stimulated rat HSC-T6 cells assessed as reduction of HSC activation at 10 ug/ml treated 30 mins before TNFalpha stimulation measured after 6 hrs by bioluminescence based luciferase reporter gene assay relative to control
Assay type: cell-based
Conditions: Homo sapiens

Which inhibition does the source give for SILYMARIN here?
Its inhibition is 51.4%.
